In paper PMC9969023 (European Journal of Nuclear Medicine and Molecular Imaging, 2023):

Substance: ^18F-FDG
- SUVmax of paratracheal enlarged lymph nodes (patient 2, PET/MR): 21.50
- SUVmax of thickened esophagus (patient 2, PET/MR, 3.7 MBq/kg, 50 to 70 min P.I.): 28.24
- SUVmax of lung nodule (patient 2, PET/MR, nodule in left lung lower lobe): 1.60
- uptake in peritoneal nodules (patient 3, peritoneal metastases, result in words): mild increased uptake
